Data: patent EP1969935A1, “3.4-disubstituted phenoxy phenylamidines and their use as fungicides” (Bayer CropScience AG, priority 2007, dated 2008)

How the values were obtained:
logP determination = assay type: physicochemical; conditions: pH 2.3; given in the preparation examples; read-out: log P (pH2.3)
Sphaerotheca fuliginea = experiment: Sphaerotheca test (cucumber) / protective; assay type: in vivo; conditions: 100ppm active ingredient, cucumber plants sprayed protectively, evaluated 7 days after inoculation; 0% = control, 100% = no infestation
Text: Beispiel 2: Sphaerotheca-Test (Gurke) / protektiv
(§1) Zur Herstellung einer zweckmäßigen Wirkstoffzubereitung vermischt man 1 Gewichtsteil Wirkstoff mit den angegebenen Mengen Lösungsmittel und Emulgator und verdünnt das Konzentrat mit Wasser auf die gewünschte Konzentration.
(§2) Zur Prüfung auf protektive Wirksamkeit werden junge Pflanzen mit der Wirkstoffzubereitung in der angegebenen Aufwandmenge besprüht. Nach Antrocknen des Spritzbelages werden die Pflanzen mit einer wäßrigen Sporensuspension von Sphaerotheca fuliginea inokuliert. Die Pflanzen werden dann bei ca. 23°C und einer relativen Luftfeuchtigkeit von ca. 70% im Gewächshaus aufgestellt.
7 Tage nach der Inokulation erfolgt die Auswertung. Dabei bedeutet 0% ein Wirkungsgrad, der demjenigen der Kontrolle entspricht, während ein Wirkungsgrad von 100% bedeutet, daß kein Befall beobachtet wird.

[1] = tested on: Erysiphe graminis f.sp. hordei; experiment: Erysiphe test (barley) / protective; assay type: in vivo; conditions: 1000 ppm active ingredient, barley plants sprayed protectively, evaluated 7 days after inoculation; 0% = control, 100% = no infestation
Text: Beispiel 4: Erysiphe-Test (Gerste) / protektiv
as §1
Zur Prüfung auf protektive Wirksamkeit besprüht man junge Pflanzen mit der Wirkstoffzubereitung in der angegebenen Aufwandmenge.
Nach Antrocknen des Spritzbelages werden die Pflanzen mit Sporen von Erysiphe graminis f.sp. hordei bestäubt.
Die Pflanzen werden in einem Gewächshaus bei einer Temperatur von ca. 20°C und einer relativen Luftfeuchtigkeit von ca. 80 % aufgestellt, um die Entwicklung von Mehltaupusteln zu begünstigen.
7 Tage nach der Inokulation erfolgt die Auswertung. Dabei bedeutet 0 % ein Wirkungsgrad, der demjenigen der Kontrolle entspricht, während ein Wirkungsgrad von 100 % bedeutet, daß kein Befall beobachtet wird.

Podosphaera leucotricha = experiment: Podosphaera test (apple) / protective; assay type: in vivo; conditions: 100ppm active ingredient, apple plants sprayed protectively, evaluated 10 days after inoculation; 0% = control, 100% = no infestation
Text: Beispiel 1: Podosphaera-Test (Apfel) / protektiv
as §1
as §2, with “des Apfelmehltauerregers Podosphaera leucotricha” for “von Sphaerotheca fuliginea”, “dann im Gewächshaus” for “dann”, “70%” for “70% im Gewächshaus”
(§3) 10 Tage nach der Inokulation erfolgt die Auswertung. Dabei bedeutet 0% ein Wirkungsgrad, der demjenigen der Kontrolle entspricht, während ein Wirkungsgrad von 100% bedeutet, daß kein Befall beobachtet wird.

Alternaria solani = experiment: Alternaria test (tomato) / protective; assay type: in vivo; conditions: 500ppm active ingredient, tomato plants sprayed protectively, inoculated 1 day after treatment, evaluated 7 days after inoculation; 0% = control, 100% = no infestation
Text: Beispiel 5: Alternaria-Test (Tomate) / protektiv
as §1
Zur Prüfung auf protektive Wirksamkeit bespritzt man junge Tomatenpflanzen mit der Wirkstoffzubereitung in der angegebenen Aufwandmenge. 1 Tag nach der Behandlung werden die Pflanzen mit einer Sporensuspension von Alternaria solani inokuliert und stehen dann 24h bei 100% rel. Feuchte und 20°C. Anschließend stehen die Pflanzen bei 96% rel. Luftfeuchtigkeit und einer Temperatur von 20 °C.
7 Tage nach der Inokulation erfolgt die Auswertung. Dabei bedeutet 0 % ein Wirkungsgrad, der demjenigen der Kontrolle entspricht, während ein Wirkungsgrad von 100 % bedeutet, dass kein Befall beobachtet wird.

Uromyces appendiculatus = experiment: Uromyces test (bean) / protective; assay type: in vivo; conditions: 10ppm active ingredient, bean plants sprayed protectively, evaluated 10 days after inoculation; 0% = control, 100% = no infestation
Text: In diesem Test zeigen die erfindungsgemäßen Verbindungen 10, 11, 12 und 13 (siehe Tab.IV) bei einer Konzentration an Wirkstoff von 100ppm einen Wirkungsgrad von 70% oder mehr. Beispiel 3: Uromyces - Test (Bohne) / protektiv
as §1
Zur Prüfung auf protektive Wirksamkeit werden junge Pflanzen mit der Wirkstoffzubereitung in der angegebenen Aufwandmenge besprüht. Nach Antrocknen des Spritzbelages werden die Pflanzen mit einer wäßrigen Sporensuspension des Bohnenrosterregers Uromyces appendiculatus inokuliert und verbleiben dann 1 Tag bei ca. 20°C und 100% relativer Luftfeuchtigkeit in einer Inkubations-kabine.
Die Pflanzen werden dann im Gewächshaus bei ca. 21°C und einer relativen Luftfeuchtigkeit von ca. 90% aufgestellt.
as §3

Row | Structure (SMILES) | logD (logP determination) | Wirkungsgrad (Sphaerotheca fuliginea) [%] | Wirkungsgrad [1] [%] | Wirkungsgrad (Podosphaera leucotricha) [%] | Wirkungsgrad (Alternaria solani) [%] | Wirkungsgrad (Uromyces appendiculatus) [%]
1 | Cc1cc(Oc2ccc3c(c2)CCCC3)c(C)cc1N [4-(5,6,7,8-Tetrahydro-2-napthoxy)-2,5-dimethylanilin] | 3.08 | – | – | – | – | –
2 | CCN(C)C=Nc1cc(C)c(Oc2ccc3c(c2)CCCC3)cc1C [Verbindung 13, N-E-thyl-N-methyl-N'-[4-(5,6,7,8-tetrahydro-2-napthoxy)-2,5-dimethylphenyl]form-amidin] | – | ≥ 70 | ≥ 70 | ≥ 70 | ≥ 70 | ≥ 70
3 | Cc1cc([N+](=O)[O-])c(C)cc1Oc1ccc2c(c1)CCCC2 [4-(5,6,7,8-Tetrahydro-2-napthoxy)-2,5-dimethylnitrobenzol] | 5.86 | – | – | – | – | –
